A short description of the series: Solubility of esylate salt: final concentration of the solution after filtration. The format is physicochemical. The method, then: A solution was prepared by dissolving excess of Compound A as esylate salt in 3 mL water followed by gently stirring over night. A final concentration of the solution after filtration was monitored to 14 mg/ml at a pH of 2.7.
A solution was prepared by dissolving 112 mg of Compound A as esylate salt in 3 mL sodium phosphate buffer followed by gently stirring over night. A final concentration of the solution after filtration was monitored to 33 mg/ml at a pH of 2.7.
A solution was prepared by dissolving 20 mg of Compound A as esylate salt in 3 mL sodium phosphate buffer followed by gently stirring over night. A final concentration of the solution after filtration was monitored to 1.6 mg/ml at a pH of 6.5.

As for `CCS(=O)(=O)O.CO/N=C(\N)c1ccc(CNC(=O)C2CCN2C(=O)C(O)c2cc(Cl)cc(OC(F)F)c2)cc1` (stereo not drawn) [Compound A as esylate salt], the solubility (thermodynamic) reads like this: (pH 2.7, aqueous buffer, thermodynamic from solid, 112 mg in 3 mL sodium phosphate buffer pH 3.1 I = 0.1, stirred over night, at a pH of 2.7) 33 mg/mL; (pH 2.7, thermodynamic from solid, excess salt in 3 mL water, stirred over night, at a pH of 2.7) 14 mg/mL; (pH 6.5, aqueous buffer, thermodynamic from solid, 20 mg in 3 mL sodium phosphate buffer pH 6.9 I = 0.1, stirred over night, at a pH of 6.5) 1.6 mg/mL.
